{"source": "patent US20080090805A1", "about": "“CB-1 MODULATING COMPOUNDS AND THEIR USE” (ACADIA PHARMACEUTICALS INC., priority 2005, published 2008)", "key": {"NSA mice [1]": {"system": "NSA mice", "assay": "Hypothermia study (block of CP 55,940-induced hypothermia)", "format": "in vivo", "conditions": "pretreatment 30 min prior to CP55,940, dose-dependent, FIG. 6", "method": ". […] Core body temperatures were then obtained at various time points following CP 55,940 administration. Core body temperature (to the nearest 0.1° C.) was obtained by rectal probe."}, "NSA mice [2]": {"system": "NSA mice", "assay": "Tail flick study (block of CP 55,940 antinociception)", "conditions": "test compound ip 30 min prior to CP55,940, FIGS. 5A, 5B"}, "[3]": {"system": "fasted Sprague-Dawley rats", "assay": "Acute feeding study", "format": "in vivo", "conditions": "1, 3, 10 mg/kg, dose-dependent, FIGS. 2-4", "method": "Male, Sprague-Dawley rats (90-120 g) served as subjects for these studies. Rats were fasted for a period of 16 hrs (water was always available). After the fasting period, test compounds were administered either intraperitoneally (ip) or orally (po). Immediately following compound administration, the rats were returned to their home cage. Following 30 min after compound administration, the rats were removed from their home cages and placed individually into clean cages with a pre-measured amount of food. Food weights were obtained (to the nearest 0.1 g) at various time points. Food consumption was monitored for a period of up to 2 hrs (i.e., 2.5 hr after test compound administration)."}, "C57 BK/6 mice": {"system": "C57 BK/6 mice", "assay": "Novel object recognition study", "format": "in vivo", "conditions": "test 1 or 2 hours after dosing, CP 55,940 0.3 mg/kg ip, SR141716A 1 mg/kg ip, Compound II 3 mg/kg ip, FIGS. 10, 11", "method": "Subjects: Subjects were male, C57 BK/6 mice purchased from Harlan Laboratories, weighing 15-20 g upon arrival. Animals were housed 8 per cage with food and water available ad libidum. Animals were housed on a 12 hr light cycle (lights on 6 am) for 4-7 days prior to behavioral testing.\nEquipment: Novel object recognition (NOR) was conducted in a novel environment consisting of a white plastic tub measuring 45.7×33.7×19 cm. Prior to each trial the bottom of the tub was covered with a piece of plastic lined bench top paper. There were two sets of identical objects chosen so that when given a opportunity to explore, mice would evenly divide exploration time between the objects. “A” objects were yellow, ceramic, 12-sided ramekins measuring 4 cm high×7 cm diameter. “B” objects were 8×8×4 cm stainless steel, 4-sided ramekins.\nProcedure: At the beginning of each test day, animals were placed in groups of 6 into clean cages. Testing was conducted in three phases: acclimation, sample and test. […] Each mouse was allowed to explore the chamber and the objects for 3 min., and the time spent exploring at each position was recorded. Directly sniffing or touching the object was recorded as exploration. […] The test sessions were recorded on video and scored by an observer blind to each subject's treatment condition. Any time spent directly sniffing or touching an object was counted as exploration. […]"}, "obese Zucker rats": {"system": "obese Zucker rats", "assay": "Chronic feeding study", "format": "in vivo", "conditions": "1, 3, 10 mg/kg/day, dose-dependent, FIGS. 9A-9D", "method": "Male, obese Zucker rats (400-500 g) served as subjects for these studies. Rats were housed individually and had access to food and water ad libitum. Rats were allowed to acclimate to the vivarium for a period of 3 days, during which body weight and consumption of food and water was monitored. […] Daily food and water intakes were also monitored. Food and water bottles were weighed at the time body weights were recorded (i.e., 1350 hr). Vehicle or compound was administered daily for a period of up to 15 days."}, "[4]": {"system": "rats with unilateral 6-OH dopamine lesions", "assay": "Rotation study (unilateral 6-hydroxy-dopamine lesion)", "format": "in vivo", "conditions": "6-OH dopamine lesioned rats; apomorphine 0.05, 0.16, 0.5 mg/kg ip; Compound II 3 mg/kg; FIGS. 14-16"}, "in vitro [5]": {"assay": "in vitro", "conditions": "rat, microsomes, pH 7.4"}, "in vitro [6]": {"assay": "in vitro", "conditions": "mouse, microsomes, pH 7.4"}, "[7]": {"conditions": "microsomes"}}}
{"smiles": "O=C(NN1CCCCC1)c1ccc2c(c1)N=C(C1CCCCC1)c1ccccc1S2", "note": "[Compound I, 11-Cyclohexyl-dibenzo[b,f][1,4]thiazepine-8-carboxylic acid piperidin-1-ylamide]", "values": [{"measurement": "effect on CP 55,940-induced hypothermia (core body temperature)", "setting": "NSA mice [1]", "result": "attenuates CP 55,940-induced hypothermia"}, {"measurement": "effect on antinociceptive actions of CP55,940 (tail flick latency)", "setting": "NSA mice [2]", "result": "attenuates the antinociceptive actions of CP55,940"}, {"measurement": "cumulative food intake", "setting": "[3]", "result": "suppresses the cumulative food intake in fasted rats"}]}
{"smiles": "CCCCNC(=O)c1ccc2c(c1)N=C(c1ccc(Cl)cc1)c1ccccc1S2", "note": "[Compound II, N-(butyl)-11-(4-chlorophenyl)-dibenzo[b,f,][1,4]thiazepine-8-carboxamide]", "values": [{"measurement": "preference for the novel object (exploration ratio, discrimination index)", "setting": "C57 BK/6 mice", "result": "showed a preference for the novel object"}, {"measurement": "food and water intake", "setting": "obese Zucker rats", "result": "attenuated the food and water intake of the rats"}, {"measurement": "contralateral rotations", "setting": "[4]", "result": "augments dopaminergic functions"}]}
{"smiles": "CCCCCCC(C)(C)c1ccc([C@@H]2C[C@H](O)CC[C@H]2CCCO)c(O)c1", "note": "[CP 55,940, reference compound]", "values": [{"measurement": "preference for the novel object (exploration ratio, discrimination index)", "setting": "C57 BK/6 mice", "result": "showed a preference for the novel object after 1 hour of being dosed with the test compound but then returned back to baseline exploration rates after 2 hours"}]}
{"smiles": "CCCCNC(=O)c1ccc2c(c1)N=C(c1ccc(Cl)cc1)c1ccc(Cl)cc1S2", "note": "[drawing 1732]", "values": [{"measurement": "microsomal CLint at 1 μM", "setting": "in vitro [5]", "result": 24, "unit": "µL/min/mg"}, {"measurement": "microsomal CLint at 1 μM", "setting": "in vitro [6]", "result": 29, "unit": "µL/min/mg"}, {"measurement": "Clearance Human", "setting": "[7]", "result": 0}]}
{"smiles": "CN1CCc2cccc3c2[C@H]1Cc1ccc(O)c(O)c1-3", "note": "[apomorphine, reference compound]", "values": [{"measurement": "contralateral rotations", "setting": "[4]", "result": "dose-dependently elicits contralateral rotations"}]}
